Reference: the NIST ThermoML archive (doi:10.1021/je3003578)

Experiment: xn = mol fraction of the nth substance listed
Details: 101 kPa, Liquid

CCOCCCN [3-ethoxy-1-propanamine] + O
mass density [kg/m3]
Details | 283.15 K | 288.15 K | 293.15 K
x1 = 0.000108 | 999.685 | 999.073 | 998.176
x1 = 0.000319 | 999.612 | 998.997 | 998.098
x1 = 0.000625 | 999.489 | – | 997.974
x1 = 0.000707 | 999.462 | – | –
x1 = 0.000942 | 999.378 | 998.755 | 997.845
x1 = 0.001046 | 999.335 | – | –
x1 = 0.001284 | 999.244 | 998.623 | 997.706
x1 = 0.001947 | 999.006 | 998.367 | 997.459
x1 = 0.002912 | 998.665 | 998.003 | 997.058
x1 = 0.00392 | 998.32 | 997.639 | 996.673
x1 = 0.005098 | 997.943 | 997.245 | 996.25
x1 = 0.007456 | 997.213 | 996.459 | –
x1 = 0.00981 | 996.579 | 995.782 | 994.681
x1 = 0.0148 | 995.454 | 994.495 | 993.269
x1 = 0.01956 | 994.585 | 993.456 | 992.092
x1 = 0.02832 | 993.306 | 991.899 | 990.264
x1 = 0.03914 | 992.137 | 990.361 | 988.357
x1 = 0.05082 | 991.126 | 988.889 | 986.504
x1 = 0.06674 | 989.564 | 986.858 | 983.968
x1 = 0.09536 | 985.793 | 982.292 | 978.874
x1 = 0.1209 | 981.126 | 977.267 | 973.326
x1 = 0.1452 | 976.001 | 971.617 | 967.737
x1 = 0.1844 | 967.807 | 962.845 | 958.517
x1 = 0.2121 | 960.275 | 955.87 | 951.456
x1 = 0.2438 | 954.343 | 948.987 | –
x1 = 0.2923 | 944.589 | 939.953 | –
x1 = 0.361 | 932.627 | 926.801 | –
x1 = 0.4369 | 921.019 | 916.153 | –
x1 = 0.4937 | 911.932 | 907.295 | –
x1 = 0.5513 | 904.655 | 900.039 | –
x1 = 0.6214 | 896.914 | 892.186 | –
x1 = 0.6775 | 891.266 | 886.402 | –
x1 = 0.6943 | 889.59 | 884.998 | –
x1 = 0.7458 | 884.839 | 880.089 | –
x1 = 0.7733 | 882.976 | – | –
x1 = 0.7947 | 880.664 | 875.868 | –
x1 = 0.8276 | 878.228 | 873.43 | –
x1 = 0.8488 | 876.201 | 871.511 | –
x1 = 0.8744 | 874.608 | – | –
x1 = 0.8993 | 872.317 | 867.858 | –
x1 = 0.9189 | 871.084 | 866.306 | –
x1 = 0.9349 | – | 864.955 | –
x1 = 0.9411 | 869.403 | – | –
x1 = 0.9436 | – | 864.338 | –
x1 = 0.9486 | 868.869 | – | –
x1 = 0.9601 | 868.041 | 863.267 | –
x1 = 0.9755 | – | 862.192 | –
x1 = 0.985 | 866.322 | 861.525 | –
x1 = 1 | 865.36 | 860.63 | –
